In patent US4024121A, “(Pyro)-Glu-His-Trp-D-Ser-Tyr-D-Leu-Leu-Arg-Pro-NHR and intermediates” (priority 1976, dated 1977):

Key:
[1] = system: LH-release; assay: LH-release in rats after subcutaneous injection (procedure of Arimura et al.); format: in vivo; details: 50 ng subcutaneously
[2] = system: LH-RH activity; assay: LH-RH activity compared with the natural hormone
[3] = system: LH-RH activity; details: literature reports; cited from earlier work

## CC(C)C[C@H](NC(=O)CNC(=O)[C@H](Cc1ccc(O)cc1)NC(=O)[C@H](CO)NC(=O)[C@H](Cc1c[nH]c2ccccc12)NC(=O)[C@H](Cc1c[nH]cn1)NC(=O)[C@@H]1CCC(=O)N1)C(=O)N[C@@H](CCCNC(=N)N)C(=O)N1CCC[C@H]1C(=O)NCC(N)=O [LH-RH, (pyro)-Glu-His-Trp-Ser-Tyr-Gly-Leu-Arg-Pro-Gly-NH2]
[1]
  duration of effect of the injection (LH release): no effects of the injection are observed after one hour
  time at which peak activity (LH release) is reached after injection: ~15 min

## CC(C)C[C@H](NC(=O)CNC(=O)[C@H](Cc1ccc(O)cc1)NC(=O)[C@@H](CO)NC(=O)[C@H](Cc1c[nH]c2ccccc12)NC(=O)[C@H](Cc1c[nH]cn1)NC(=O)[C@@H]1CCC(=O)N1)C(=O)N[C@@H](CCCNC(=N)N)C(=O)N1CCC[C@H]1C(=O)NCC(N)=O [[D-Ser^4]-LH-RH]
[2]
  LH-RH activity relative to the natural hormone: less than 5%

## [D-Ala^6 ]-LH-RH
[3]
  activity compared with LH-RH: more active than LH-RH
